As a reminder, the IC50 is the midpoint of a concentration-inhibition curve.

Read-outs that look alike come from different tables or passages of the source.

The assay has as its system primary CLL cells. Kind of assay: tetrazolium-based cell viability assay (MTS) on primary CLL cells, Compound 1 with or without fludarabine. The note with it: for IC50: Homo sapiens, CLL cell. Further details: species or system human. As to the method:
Fresh primary CLL cells from 42 CLL patients were purified using a Ficoll gradient. Purified cells were then added to wells (5×10^4 per well) containing 10% serum serum containing media and four serial dilutions of Compound 1 (ranging from 10 nM to 10 μM) with or without different concentrations of fludarabine (also ranging from 10 nM to 10 μM). […] The viability data were normalized to untreated controls and were used to calculate IC50 values. […] Comput. Biomed. Res. 199, 32(2): 145-160).

In the case of `NC(=O)c1cnc(N[C@@H]2CCCC[C@@H]2N)nc1Nc1cccc(-n2nccn2)c1` [Compound 1, 4-(3-(2H-1,2,3-triazol-2-yl)phenylamino)-2-((1R,2S)-2-aminocyclohexylamino)pyrimidine-5-carboxamide], the IC50 is, setting by setting: (read-out: median IC50 (cell viability)) 394 nM; (three of seven samples with the 17p deletion that had significant activity, read-out: IC50 (cell viability)) 37.5 nM. In addition, for the setting “samples from relapsed patients and with poor risk features (ZAP70 and/or CD38 expression, 11q deletion, unmutated IgVh)”, the cell viability result was “significant decreases in cell viability”.

Values taken from patent US20130252917A1, “COMBINATION THERAPY OF 4-(3-(2H-1,2,3-TRIAZO-2-YL)PHENYLAMINO)-2-((1R,2S)-2-AMINOCYCLOHEXYLAMINO)PYRIMIDINE-5-CARBOXAMIDE AND FLUDARABINE” (priority 2010, published 2013).
